Results from patent US9833497B2, “Human originated EGF domain proteins and use of the same” (CHENGDU SOURCEBIO LIMITED-LIABILITY COMPANY, priority 2013, dated 2017).

Experiments:
Format in all cases: cell-based
[1] = system: Moraxella catarrhalis; assay: MIC against Gram-negative bacteria: Moraxella catarrhalis
How it was run: (§1)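 MIC = lowest concentration of recombinant protein showing no growth. Test proteins: purified human-derived EGF domain proteins, two-fold dilution series, three wells per concentration; inoculum 5×10^5 CFU/mL in LB; incubation 37° C with shaking at 175 rpm.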

[2] = system: Citrobacter diversus; assay: MIC against Gram-negative bacteria: Citrobacter diversus
How it was run: as §1

[3] = system: Aeromonas hydrophila; assay: MIC against Gram-negative bacteria: Aeromonas hydrophila
How it was run: as §1

[4] = system: Klebsiella pneumonia; assay: MIC against Gram-negative bacteria: Klebsiella pneumonia
How it was run: as §1

[5] = system: Serratia marcescens; assay: MIC against Gram-negative bacteria: Serratia marcescens
How it was run: as §1

[6] = system: E. coli BL21; assay: MIC against Gram-negative bacteria: E. coli BL21
How it was run: as §1

[7] = system: Proteus mirabilis; assay: MIC against Gram-negative bacteria: Proteus mirabilis
How it was run: as §1

[8] = system: E. coli DH5α; assay: Antibacterial activity: MIC and growth curve against E. coli DH5α in 96-well plate; details: minimal inhibitory concentration against E. coli DH5α; 96-well plate, 5×10^5 CFU/mL, 37° C., judged after 8 h
How it was run: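 Log-phase DH5α (OD600 about 0.5, 37° C, 185 rpm in LB) was pelleted, resuspended in fresh LB and seeded at 5×10^5 CFU/mL with recombinant protein at 50, 25 and 12.5 μg/mL (two-fold series), in triplicate. Plates were shaken at 175 rpm, 37° C, and OD600 was read every 30 min. MIC was the lowest concentration with no growth.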

[9] = system: Pseudomonas aeruginosa; assay: MIC against Gram-negative bacteria: Pseudomonas aeruginosa
How it was run: as §1

[10] = system: Enterobacter cloacae; assay: MIC against Gram-negative bacteria: Enterobacter cloacae
How it was run: as §1

[11] = system: Proteus vulgaris; assay: MIC against Gram-negative bacteria: Proteus vulgaris
How it was run: as §1

[12] = M. catarrhalis, 10 h cultivation at 37° C., 5×10^5 CFU/mL
[13] = C. diversus, 10 h cultivation at 37° C., 5×10^5 CFU/mL
[14] = A. hydrophila, 10 h cultivation at 37° C., 5×10^5 CFU/mL
[15] = K. pneumonia, 10 h cultivation at 37° C., 5×10^5 CFU/mL
[16] = S. marcescens, 10 h cultivation at 37° C., 5×10^5 CFU/mL
[17] = E. coli BL21, 10 h cultivation at 37° C., 5×10^5 CFU/mL
[18] = P. mirabilis, 10 h cultivation at 37° C., 5×10^5 CFU/mL
[19] = P. aeruginosa, 10 h cultivation at 37° C., 5×10^5 CFU/mL
[20] = E. cloacae, 10 h cultivation at 37° C., 5×10^5 CFU/mL
[21] = P. vulgaris, 10 h cultivation at 37° C., 5×10^5 CFU/mL
[22] = 96-well plate, 5×10^5 CFU/mL, 37° C., 10 h
[23] = Moraxella catarrhalis, 5×10^5 CFU/mL, 10 h cultivation at 37° C.
[24] = Citrobacter diversus, 5×10^5 CFU/mL, 10 h cultivation at 37° C.
[25] = Aeromonas hydrophila, 5×10^5 CFU/mL, 10 h cultivation at 37° C.
[26] = Klebsiella pneumonia, 5×10^5 CFU/mL, 10 h cultivation at 37° C.
[27] = Serratia marcescens, 5×10^5 CFU/mL, 10 h cultivation at 37° C.
[28] = E. coli BL21, 5×10^5 CFU/mL, 10 h cultivation at 37° C.
[29] = Proteus mirabilis, 5×10^5 CFU/mL, 10 h cultivation at 37° C.
[30] = Pseudomonas aeruginosa, 5×10^5 CFU/mL, 10 h cultivation at 37° C.
[31] = Enterobacter cloacae, 5×10^5 CFU/mL, 10 h cultivation at 37° C.
[32] = Proteus vulgaris, 5×10^5 CFU/mL, 10 h cultivation at 37° C.
[33] = Moraxella catarrhalis, 96-well plate, 5×10^5 CFU/mL, 37° C., 10 h
[34] = Citrobacter diversus, 96-well plate, 5×10^5 CFU/mL, 37° C., 10 h
[35] = Aeromonas hydrophila, 96-well plate, 5×10^5 CFU/mL, 37° C., 10 h
[36] = Klebsiella pneumonia, 96-well plate, 5×10^5 CFU/mL, 37° C., 10 h
[37] = Serratia marcescens, 96-well plate, 5×10^5 CFU/mL, 37° C., 10 h
[38] = E. coli BL21, 96-well plate, 5×10^5 CFU/mL, 37° C., 10 h
[39] = Proteus mirabilis, 96-well plate, 5×10^5 CFU/mL, 37° C., 10 h
[40] = Pseudomonas aeruginosa, 96-well plate, 5×10^5 CFU/mL, 37° C., 10 h
[41] = Enterobacter cloacae, 96-well plate, 5×10^5 CFU/mL, 37° C., 10 h
[42] = Proteus vulgaris, 96-well plate, 5×10^5 CFU/mL, 37° C., 10 h

PRT872 (CKCNLHANLCSMREGSLQCECEHNTTGPDCGKCKKNFRTRSWRAGSYLPLPHGSPNACAT; listed as Homo sapiens)
25 µg/mL: MIC (μg/mL) S. marcescens [5, 16] | MIC [8] | MIC (μg/mL) P. aeruginosa [9, 19] | MIC (μg/mL) E. cloacae [10, 20]
50 µg/mL: MIC (μg/mL) M. catarrhalis [1, 12] | MIC (μg/mL) A. hydrophila [3, 14] | MIC (μg/mL) E. coli BL21 [6, 17] | MIC (μg/mL) P. vulgaris [11, 21]
12.5 µg/mL: MIC (μg/mL) C. diversus [2, 13] | MIC (μg/mL) K. pneumonia [4, 15] | MIC (μg/mL) P. mirabilis [7, 18]

PRT638 (DVNECELLSGVCGEAFCENVEGSFLCVCADENQEYSPMTGQCR; listed as Homo sapiens)
50 µg/mL: MIC A. hydrophila [3, 22] | MIC S. marcescens [5, 22] | MIC P. mirabilis [7, 22] | MIC P. aeruginosa [9, 22]
25 µg/mL: MIC C. diversus [2, 22] | MIC [8] | MIC E. cloacae [10, 22]
12.5 µg/mL: MIC M. catarrhalis [1, 22] | MIC K. pneumonia [4, 22] | MIC E. coli BL21 [6, 22] | MIC P. vulgaris [11, 22]

PRT1364 (GELKCPNGCSGHGRCVNGQCVCDEGYTGEDCS; listed as Homo sapiens)
50 µg/mL: MIC against K. pneumonia [4, 26]
12.5 µg/mL: MIC against M. catarrhalis [1, 23] | MIC against C. diversus [2, 24] | MIC against S. marcescens [5, 27] | MIC against E. coli BL21 [6, 28] | MIC against P. mirabilis [7, 29] | MIC against P. vulgaris [11, 32]
25 µg/mL: MIC against A. hydrophila [3, 25] | MIC [8] | MIC against P. aeruginosa [9, 30] | MIC against E. cloacae [10, 31]

PRT90 (CDCYPVGSTSRSCAPHSGQCPCRPGALGRQCNSCDSPFAEVTASGCRV; listed as Homo sapiens)
50 µg/mL: MIC [8]
12.5 µg/mL: MIC (μg/mL) M. catarrhalis [1, 33] | MIC (μg/mL) A. hydrophila [3, 35] | MIC (μg/mL) K. pneumonia [4, 36] | MIC (μg/mL) S. marcescens [5, 37] | MIC (μg/mL) E. coli BL21 [6, 38] | MIC (μg/mL) P. aeruginosa [9, 40] | MIC (μg/mL) E. cloacae [10, 41] | MIC (μg/mL) P. vulgaris [11, 42]
25 µg/mL: MIC (μg/mL) C. diversus [2, 34] | MIC (μg/mL) P. mirabilis [7, 39]

PRT914 (DARTCGSLRCLNGGTCISGPRSPTCLCLGPFTGPECQ; listed as Homo sapiens)
12.5 µg/mL: MIC ([1]; M. catarrhalis, 10 h cultivation at 37° C.) | MIC ([2]; C. diversus, 10 h cultivation at 37° C.) | MIC ([3]; A. hydrophila, 10 h cultivation at 37° C.) | MIC ([4]; K. pneumonia, 10 h cultivation at 37° C.) | MIC ([5]; S. marcescens, 10 h cultivation at 37° C.) | MIC ([7]; P. mirabilis, 10 h cultivation at 37° C.) | MIC [8] | MIC ([9]; P. aeruginosa, 10 h cultivation at 37° C.) | MIC ([11]; P. vulgaris, 10 h cultivation at 37° C.)
25 µg/mL: MIC ([6]; E. coli BL21, 10 h cultivation at 37° C.) | MIC ([10]; E. cloacae, 10 h cultivation at 37° C.)

PRT1392 (TELCTMECGSHGVCSRGICQCEEGWVGPTC; listed as Homo sapiens)
12.5 µg/mL: MIC against C. diversus [2, 24] | MIC against P. mirabilis [7, 29] | MIC [8] | MIC against P. aeruginosa [9, 30] | MIC against E. cloacae [10, 31]
25 µg/mL: MIC against M. catarrhalis [1, 23] | MIC against A. hydrophila [3, 25] | MIC against K. pneumonia [4, 26] | MIC against E. coli BL21 [6, 28] | MIC against P. vulgaris [11, 32]
50 µg/mL: MIC against S. marcescens [5, 27]

PRT1366 (ERLACPGACSGHGRCVDGRCLCHEPYVGADCG; listed as Homo sapiens)
12.5 µg/mL: MIC against M. catarrhalis [1, 23] | MIC against C. diversus [2, 24] | MIC against A. hydrophila [3, 25] | MIC against S. marcescens [5, 27] | MIC against E. coli BL21 [6, 28] | MIC against P. mirabilis [7, 29] | MIC [8] | MIC against P. aeruginosa [9, 30] | MIC against E. cloacae [10, 31] | MIC against P. vulgaris [11, 32]
25 µg/mL: MIC against K. pneumonia [4, 26]

PRT7 (TCLSSKEGTICSGNGVCSNELKCVCNRHWIGSDCN; listed as Homo sapiens)
12.5 µg/mL: MIC (μg/mL) C. diversus [2, 34] | MIC (μg/mL) K. pneumonia [4, 36] | MIC (μg/mL) S. marcescens [5, 37] | MIC [8] | MIC (μg/mL) E. cloacae [10, 41]
50 µg/mL: MIC (μg/mL) A. hydrophila [3, 35] | MIC (μg/mL) P. mirabilis [7, 39] | MIC (μg/mL) P. vulgaris [11, 42]
25 µg/mL: MIC (μg/mL) M. catarrhalis [1, 33] | MIC (μg/mL) E. coli BL21 [6, 38] | MIC (μg/mL) P. aeruginosa [9, 40]

PRT466 (RHTACLSSPCLNGGTCHLIVATGTTVCACPPGFAGRLCN; listed as Homo sapiens)
12.5 µg/mL: MIC against C. diversus [2, 22] | MIC against S. marcescens [5, 22] | MIC against P. mirabilis [7, 22] | MIC [8] | MIC against P. aeruginosa [9, 22] | MIC against E. cloacae [10, 22]
50 µg/mL: MIC against M. catarrhalis [1, 22] | MIC against A. hydrophila [3, 22] | MIC against K. pneumonia [4, 22] | MIC against E. coli BL21 [6, 22] | MIC against P. vulgaris [11, 22]

PRT3 (DGDQCESNPCLNGGSCKDDINSYECWCPFGFEGKNCE; listed as Homo sapiens)
25 µg/mL: MIC (μg/mL) C. diversus [2, 34] | MIC (μg/mL) A. hydrophila [3, 35] | MIC (μg/mL) E. coli BL21 [6, 38] | MIC (μg/mL) P. aeruginosa [9, 40] | MIC (μg/mL) P. vulgaris [11, 42]
12.5 µg/mL: MIC (μg/mL) M. catarrhalis [1, 33] | MIC (μg/mL) K. pneumonia [4, 36] | MIC (μg/mL) S. marcescens [5, 37] | MIC (μg/mL) P. mirabilis [7, 39] | MIC [8] | MIC (μg/mL) E. cloacae [10, 41]

PRT1209 (ATEDCASNPCQNGGVCNPSPAGGYYCKCSALYIGTHCE; listed as Homo sapiens)
50 µg/mL: MIC against K. pneumonia [4, 36] | MIC [8]
12.5 µg/mL: MIC against M. catarrhalis [1, 33] | MIC against A. hydrophila [3, 35] | MIC against S. marcescens [5, 37] | MIC against E. coli BL21 [6, 38] | MIC against P. mirabilis [7, 39]
25 µg/mL: MIC against C. diversus [2, 34] | MIC against P. aeruginosa [9, 40] | MIC against E. cloacae [10, 41] | MIC against P. vulgaris [11, 42]

PRT1391 (PLPVCQEQCSGHGTFLLDAGVCSCDPKWTGSDCS; listed as Homo sapiens)
12.5 µg/mL: MIC against M. catarrhalis [1, 23] | MIC against C. diversus [2, 24] | MIC against A. hydrophila [3, 25] | MIC against K. pneumonia [4, 26] | MIC against S. marcescens [5, 27] | MIC against E. coli BL21 [6, 28] | MIC against P. mirabilis [7, 29] | MIC [8] | MIC against P. aeruginosa [9, 30] | MIC against E. cloacae [10, 31] | MIC against P. vulgaris [11, 32]

PRT827 (HLECSCHNNSTCEPATGTCRCGPGFYGQACE; listed as Homo sapiens)
12.5 µg/mL: MIC (μg/mL) C. diversus [2, 13] | MIC (μg/mL) K. pneumonia [4, 15] | MIC [8] | MIC (μg/mL) P. aeruginosa [9, 19] | MIC (μg/mL) P. vulgaris [11, 21]
50 µg/mL: MIC (μg/mL) S. marcescens [5, 16] | MIC (μg/mL) P. mirabilis [7, 18] | MIC (μg/mL) E. cloacae [10, 20]
25 µg/mL: MIC (μg/mL) M. catarrhalis [1, 12] | MIC (μg/mL) A. hydrophila [3, 14] | MIC (μg/mL) E. coli BL21 [6, 17]
